Where a name gives a salt, the structure may show the parent alone.
Molecular target: human KV7.2/KV7.3 (Homo sapiens (Human), UniProt O43525+O43526)
Test: Potassium flux assay (IPG-2 AM dye)
Type: cell-based
Settings: TREX HEK 293 or HEK 293 cells expressing human KV7.2/KV7.3; arithmetic mean values
Procedure, shortened: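 EC50 from 16 concentrations (2-fold dilutions, top 30 μM), scaled between DMSO baseline and a known KV7.x modulator maximum. Signal is IPG-2 AM fluorescence (ex 530/em 558 nm) after 10 mM KCl challenge buffer addition, following 20 min room-temperature compound exposure of HEK 293 or TREX HEK 293 cells stably expressing human KV7.2/KV7.3.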

Row | SMILES | EC50
1 | CC(=O)N1CC[C@H](Oc2ccc3c(Nc4ccc(Cl)nc4)nccc3c2)C1 [Example 111, (S)-1-(3-((1-((6-chloropyridin-3-yl)amino)isoquinolin-6-yl)oxy)pyrrolidin-1-yl)ethan-1-one] | 1000 to 10000 nM
2 | CC1(C)OCC(COc2ccc3c(Nc4ccc(Cl)nc4)nccc3c2)O1 (stereo not drawn) [Example 299, N-(6-chloropyridin-3-yl)-6-((2,2-dimethyl-1,3-dioxolan-4-yl)methoxy)isoquinolin-1-amine] | < 1000 nM
3 | N#CC1(COc2ccc3c(Nc4cnc(Cl)nc4)nccc3c2)COC1 [Example 208, 3-(((1-((2-chloropyrimidin-5-yl)amino)isoquinolin-6-yl)oxy)methyl)oxetane-3-carbonitrile] | < 1000 nM
4 | CC1(COc2ccc3c(Nc4ccc(Cl)nc4)nccc3c2)CCCO1 (stereo not drawn) [Example 406, N-(6-chloropyridin-3-yl)-6-((2-methyltetrahydrofuran-2-yl)methoxy)isoquinolin-1-amine] | < 1000 nM
5 | F[C@@H]1C[C@H]1COc1ccc2c(Nc3ccc(Cl)nc3)nccc2c1 [Example 413, N-(6-chloropyridin-3-yl)-6-(((1S,2R)-2-fluorocyclopropyl)methoxy)isoquinolin-1-amine] | 1000 to 10000 nM
6 | Clc1ccc(Nc2nccc3cc(OCc4ccncn4)ccc23)cn1 [Example 51, N-(6-chloropyridin-3-yl)-6-(pyrimidin-4-ylmethoxy)isoquinolin-1-amine] | 1000 to 10000 nM
7 | Clc1ccc(Nc2nccc3cc(OCc4cnccn4)ccc23)cn1 [Example 94, N-(6-chloropyridin-3-yl)-6-(pyrazin-2-ylmethoxy)isoquinolin-1-amine] | 10000 to 30000 nM
8 | Clc1ccc(Nc2nccc3cc(OCc4cnn(Cc5ccccc5)c4)ccc23)cn1 [Example 295, 6-((1-benzyl-1H-pyrazol-4-yl)methoxy)-N-(6-chloropyridin-3-yl)isoquinolin-1-amine] | 1000 to 10000 nM
9 | COc1ccc2c(Nc3ccc(Cl)nc3)nccc2c1 [Example 19, N-(6-chloropyridin-3-yl)-6-methoxyisoquinolin-1-amine formate] | 1000 to 10000 nM
10 | Clc1ccc(Nc2nccc3sccc23)cn1 [Example 11, N-(6-chloropyridin-3-yl)thieno[3,2-c]pyridin-4-amine formate] | 1000 to 10000 nM
11 | Cc1ncc(Nc2nccc3cc(OCc4cnn(C)c4)ccc23)cn1 [Example 205, 6-((1-methyl-1H-pyrazol-4-yl)methoxy)-N-(2-methylpyrimidin-5-yl)isoquinolin-1-amine] | < 1000 nM
12 | Fc1cccc2c(Nc3ccc(Cl)nc3)nccc12 [Example 22, N-(6-chloropyridin-3-yl)-5-fluoroisoquinolin-1-amine] | 1000 to 10000 nM
13 | C[C@H](Oc1ccc2c(Nc3ccc(Cl)nc3)nccc2c1)c1cnn(C)c1 [Example 172, (S)—N-(6-chloropyridin-3-yl)-6-(1-(1-methyl-1H-pyrazol-4-yl)ethoxy)isoquinolin-1-amine] | < 1000 nM
14 | Clc1ccc(Nc2nccc3cc(N4CCCC4)ccc23)cn1 [Example 421, N-(6-chloropyridin-3-yl)-6-(pyrrolidin-1-yl)isoquinolin-1-amine] | 1000 to 10000 nM
15 | CC1(CCc2ccc3c(Nc4ccc(Cl)nc4)nccc3c2)COC1 [Example 341, N-(6-chloropyridin-3-yl)-6-(2-(3-methyloxetan-3-yl)ethyl)isoquinolin-1-amine] | 1000 to 10000 nM
16 | CCc1ncc(Nc2nccc3cc(OCC4(F)CC4)ccc23)cn1 [Example 44, N-(2-ethylpyrimidin-5-yl)-6-((1-fluorocyclopropyl)methoxy)isoquinolin-1-amine] | 10000 to 30000 nM
17 | Cc1ncc(Nc2nccc3cc(OCc4cn[nH]c4)ccc23)cn1 [Example 395, 6-((1H-pyrazol-4-yl)methoxy)-N-(2-methylpyrimidin-5-yl)isoquinolin-1-amine] | 1000 to 10000 nM
18 | N#C[C@@H]1CCC[C@H](Oc2ccc3c(Nc4ccc(Cl)nc4)nccc3c2)C1 [Example 343, (1R,3S)-3-((1-((6-chloropyridin-3-yl)amino)isoquinolin-6-yl)oxy)cyclohexane-1-carbonitrile] | 1000 to 10000 nM
19 | N#CCC1(COc2ccc3c(Nc4ccc(Cl)nc4)nccc3c2)COC1 [Example 134, 2-(3-(((1-((6-chloropyridin-3-yl)amino)isoquinolin-6-yl)oxy)methyl)oxetan-3-yl)acetonitrile] | < 1000 nM
20 | CC(Oc1ccc2c(Nc3ccc(Cl)nc3)nccc2c1)C1(F)CC1 (stereo not drawn) [Example 91, N-(6-chloropyridin-3-yl)-6-(1-(1-fluorocyclopropyl)ethoxy)isoquinolin-1-amine] | < 1000 nM
21 | CN1CC(F)(COc2ccc3c(Nc4ccc(Cl)nc4)nccc3c2)C1 [Example 128, N-(6-chloropyridin-3-yl)-6-((3-fluoro-1-methylazetidin-3-yl)methoxy)isoquinolin-1-amine] | 10000 to 30000 nM

Row | SMILES | EC50
22 | N#CC1(COc2ccc3c(Nc4ccc(Cl)nc4)nccc3c2)COC1 [Example 85, 3-(((1-((6-chloropyridin-3-yl)amino)isoquinolin-6-yl)oxy)methyl)oxetane-3-carbonitrile] | < 1000 nM
23 | CC(C)Oc1ccc2c(Nc3ccc(Cl)nc3)nccc2c1 [Example 1, N-(6-chloropyridin-3-yl)-6-isopropoxyisoquinolin-1-amine] | 1000 to 10000 nM
24 | CC(Oc1ccc2c(Nc3ccc(Cl)nc3)nccc2c1)c1cnn(C)c1 (racemic) [Example 170, N-(6-chloropyridin-3-yl)-6-(1-(1-methyl-1H-pyrazol-4-yl)ethoxy)isoquinolin-1-amine] | < 1000 nM
25 | COc1cnc2c(Nc3ccc(Cl)nc3)nccc2c1 [Example 399, N-(6-chloropyridin-3-yl)-3-methoxy-1,7-naphthyridin-8-amine] | 1000 to 10000 nM
26 | N#CCC1(COc2ccc3c(Nc4cnc(Cl)nc4)nccc3c2)CC1 [Example 147, 2-(1-(((1-((2-chloropyrimidin-5-yl)amino)isoquinolin-6-yl)oxy)methyl)cyclopropyl)acetonitrile] | < 1000 nM
27 | CN(Cc1ccc2c(Nc3ccc(Cl)nc3)nccc2c1)c1cn[nH]c1 [Example 250, N-(6-chloropyridin-3-yl)-6-((methyl(1H-pyrazol-4-yl)amino)methyl)isoquinolin-1-amine] | < 1000 nM
28 | CS(=O)(=Nc1ccc2c(Nc3ccc(Cl)nc3)nccc2c1)C1CC1 (stereo in doubt) [Example 274, (S)-((1-((6-chloropyridin-3-yl)amino)isoquinolin-6-yl)imino)(cyclopropyl)(methyl)-λ^6-sulfanone] | < 1000 nM
29 | O[C@H]1CCC[C@@H](Oc2ccc3c(Nc4cnc(Cl)nc4)nccc3c2)C1 [Example 359, (1 S,3R)-3-((1-((2-chloropyrimidin-5-yl)amino)isoquinolin-6-yl)oxy)cyclohexan-1-ol] | < 1000 nM
30 | Cn1cc(COc2ccc3c(Nc4ccc(Cl)nc4)nccc3c2)c(Cl)n1 [Example 292, 6-((3-chloro-1-methyl-1H-pyrazol-4-yl)methoxy)-N-(6-chloropyridin-3-yl)isoquinolin-1-amine] | < 1000 nM
31 | NC(=O)C1(Oc2ccc3c(Nc4cnc(Cl)nc4)nccc3c2)CC1 [Example 61, 1-((1-((2-chloropyrimidin-5-yl)amino)isoquinolin-6-yl)oxy)cyclopropane-1-carboxamide] | 1000 to 10000 nM
32 | COCCS(=O)(=Nc1ccc2c(Nc3ccc(Cl)nc3)nccc2c1)C1CC1 (stereo not drawn) [Example 271, ((1-((6-chloropyridin-3-yl)amino)isoquinolin-6-yl)imino)(cyclopropyl)(2-methoxyethyl)-λ^6-sulfanone] | 1000 to 10000 nM
33 | COCCn1cc(COc2ccc3c(Nc4ccc(Cl)nc4)nccc3c2)cn1 [Example 336, N-(6-chloropyridin-3-yl)-6-((1-(2-methoxyethyl)-1H-pyrazol-4-yl)methoxy)isoquinolin-1-amine] | 1000 to 10000 nM
34 | N#C[C@@H]1CCC[C@@H](Oc2ccc3c(Nc4ccc(Cl)nc4)nccc3c2)C1 [Example 344, (1R,3R)-3-((1-((6-chloropyridin-3-yl)amino)isoquinolin-6-yl)oxy)cyclohexane-1-carbonitrile] | 1000 to 10000 nM
35 | COc1cc(Nc2nccc3cc(OCc4cnn(C)c4)ccc23)cnc1Cl [Example 54, N-(6-chloro-5-methoxypyridin-3-yl)-6-((1-methyl-1H-pyrazol-4-yl)methoxy)isoquinolin-1-amine] | < 1000 nM
36 | N#CC1(COc2ccc3c(Nc4cnc(Cl)nc4)nccc3c2)CC12CC2 (stereo not drawn) [Example 349, 1-(((1-((2-chloropyrimidin-5-yl)amino)isoquinolin-6-yl)oxy)methyl)spiro[2.2]pentane-1-carbonitrile] | < 1000 nM
37 | Cn1cc(OCc2ccc3c(Nc4ccc(Cl)nc4)nccc3c2)cn1 [Example 249, N-(6-chloropyridin-3-yl)-6-(((1-methyl-1H-pyrazol-4-yl)oxy)methyl)isoquinolin-1-amine] | 1000 to 10000 nM
38 | Clc1ccc(Nc2nccc3cc(O[C@H]4CCC5(COC5)C4)ccc23)cn1 [Example 135, (S)-6-((2-oxaspiro[3.4]octan-6-yl)oxy)-N-(6-chloropyridin-3-yl)isoquinolin-1-amine] | < 1000 nM
39 | [2H]C([2H])(Oc1ccc2c(Nc3cnc(Cl)nc3)nccc2c1)C1(F)CC1 [Example 384, N-(2-chloropyrimidin-5-yl)-6-((1-fluorocyclopropyl)methoxy-d2)isoquinolin-1-amine] | < 1000 nM
40 | Clc1ccc(Nc2nccc3cc(OCC4CC4)cnc23)cn1 [Example 255, N-(6-chloropyridin-3-yl)-3-(cyclopropylmethoxy)-1,7-naphthyridin-8-amine] | 1000 to 10000 nM
41 | CC[C@H](OC)c1ccc2c(Nc3ccc(Cl)nc3)nccc2c1 [Example 131, (S)—N-(6-chloropyridin-3-yl)-6-(1-methoxypropyl)isoquinolin-1-amine] | ≥ 30000 nM
42 | Cc1ncc(Nc2nccc3cc(OCc4cnoc4)ccc23)cn1 [Example 241, 6-(isoxazol-4-ylmethoxy)-N-(2-methylpyrimidin-5-yl)isoquinolin-1-amine] | < 1000 nM

— patent US20240101531A1, “PYRIDINAMINE DERIVATIVES AND THEIR USE AS POTASSIUM CHANNEL MODULATORS” (Xenon Pharmaceuticals Inc., priority 2022, published 2024)
